In patent publication US20140249191A1, “Compositions for Controlling Vascularization in Ophthalmological and Dermatological Diseases” (AVIENNE PHARMACEUTICALS GMBH, priority 2011, published 2014):
“Also recorded” adds a separate entry of the source.

Experiments:
ocular angiogenesis = assay: Conjunctival incision ocular angiogenesis model; assay type: in vivo, white pigs; conditions: pigs, eye drops 100 μg/ml
From the text: AV-398 inhibits ocular angiogenesis in vivo in a widely accepted large animal model. The cornea is an ideal model system for angiogenesis in general, and more specifically for angiogenesis of the eye. The corneal angiogenesis assay is one of the most widely used in vivo assay for the evaluation of factors influencing angiogenesis (Auerbach R, 2003, Thiele W, 2006). One reason that makes the cornea an ideal object for observing neovascularisation is its normal lack of vascularity, maintained by different molecular mechanisms. New vessels can easily be identified by visual inspection alone and quantified with the help of computerized image analysis programs. The effect of an ophthalmological formulation of AV-398 after a conjunctival insult with subsequent angiogenesis in a large animal model was investigated in order to test whether the in vitro data, such as anti-proliferative effects on human endothelial cells, could be reproduced in vivo. Six white pigs weighing 10 to 15 kg were included. First, corneae and conjunctivae were anaesthesized by local application of lidocaine 4%. Then, an incision of 0.5 cm length through the conjunctival tunica sclerae to the substantia propria was placed in parallel to the dorsal corneal limbus at a distance of approximately 2 mm. The animals were treated as follows. […]

[1] = system: endothelial cells of different origin (lung, lymphatics and umbilical); assay: Endothelial cell proliferation assay (direct cell counting); assay type: cell-based, human
Description: Primary endothelial cell lines (HMVEC-dLyAd—human dermal lymphatic microvascular endothelial cells (EC), dermal blood microvascular EC, HMVEC-LB lung blood microvascular EC, HMVEC-C cardiac human microvascular endothelial cells and MVEC-d—dermal microvascular EC) are from Cambrex Bio Science (Cambrex Bio Science Walkersville Inc., Walkersville, Md., USA). Cell lines are cultured according to the manufacturer's recommendations.
For proliferation assays, cells are seeded in 24- to 96-well plates in medium at different concentrations according to the cell type. After 24 hours, the medium is removed and replaced with fresh medium containing increasing concentrations of the compounds. The plates are then incubated for additional 24 to 72 hours, depending on the type of the experiment. Cells are then trypsinized and collected for direct counting. Results are plotted and expressed as means (±SE) for each compound and for a given concentration.

[2] = system: SAOS-2, Hela, HT29, U87MG and SK-N-DZ cells; assay: Cytotoxic activity in cancer cell lines (cell numbers); assay type: cell-based; conditions: up to 20 μM; uncoated dishes or coated with vitronectin or fibrinogen
Description: For example, cytotoxic activity of AV-398 was determined in several cancer cell lines (SAOS-2, Hela, HT29, U87MG and SK-N-DZ cells) by assessing cell numbers after treating cell lines with varying concentration of up to 20 μM. Experiments were performed either on uncoated dishes, or on dishes coated with vitronectin or fibrinogen. In addition, tumor cell lines were treated in parallel with echistatin (Gan Z R et al (1998)). […] Similar data were recently published showing cytotoxic activity also only against MDA-MB-435 breast cancer cells (Dayam R et al, 2006).

αvβ3-receptor = αvβ3-receptor (Homo sapiens, UniProt P05106+P06756); conditions: Dayam et al, 2006; cited from earlier work
αvβ3-receptor, sequence (P06756 31-889 limits assumed): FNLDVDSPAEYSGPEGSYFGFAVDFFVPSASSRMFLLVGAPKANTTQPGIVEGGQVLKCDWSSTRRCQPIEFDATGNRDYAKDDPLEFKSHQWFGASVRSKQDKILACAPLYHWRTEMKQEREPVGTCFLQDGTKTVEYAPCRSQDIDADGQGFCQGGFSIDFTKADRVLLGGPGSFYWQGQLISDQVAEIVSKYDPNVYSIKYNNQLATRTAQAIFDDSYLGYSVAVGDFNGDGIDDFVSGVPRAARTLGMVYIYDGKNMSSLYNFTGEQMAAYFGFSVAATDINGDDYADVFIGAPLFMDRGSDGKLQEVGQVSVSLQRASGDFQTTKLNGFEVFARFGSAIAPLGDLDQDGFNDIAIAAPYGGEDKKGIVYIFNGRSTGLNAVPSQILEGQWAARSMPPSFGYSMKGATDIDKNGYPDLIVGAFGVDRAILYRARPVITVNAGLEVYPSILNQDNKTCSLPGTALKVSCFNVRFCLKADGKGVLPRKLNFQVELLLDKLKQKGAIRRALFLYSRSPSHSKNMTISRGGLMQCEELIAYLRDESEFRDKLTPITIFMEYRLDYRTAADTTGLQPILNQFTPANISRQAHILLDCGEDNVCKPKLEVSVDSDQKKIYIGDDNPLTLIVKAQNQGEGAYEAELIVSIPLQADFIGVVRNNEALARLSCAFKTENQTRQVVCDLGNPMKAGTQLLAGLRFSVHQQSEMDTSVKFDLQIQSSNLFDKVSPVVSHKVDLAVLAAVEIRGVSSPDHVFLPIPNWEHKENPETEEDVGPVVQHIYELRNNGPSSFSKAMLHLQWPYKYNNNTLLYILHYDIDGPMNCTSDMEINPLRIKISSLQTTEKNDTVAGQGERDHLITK
αvβ3-receptor, sequence (P06756 891-1048 partner limits assumed): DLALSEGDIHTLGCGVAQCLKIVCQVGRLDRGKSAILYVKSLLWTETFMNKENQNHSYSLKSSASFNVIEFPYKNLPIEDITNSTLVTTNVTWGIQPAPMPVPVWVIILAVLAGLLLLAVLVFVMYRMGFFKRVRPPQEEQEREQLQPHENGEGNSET
αvβ3-receptor, sequence (P05106 27-788): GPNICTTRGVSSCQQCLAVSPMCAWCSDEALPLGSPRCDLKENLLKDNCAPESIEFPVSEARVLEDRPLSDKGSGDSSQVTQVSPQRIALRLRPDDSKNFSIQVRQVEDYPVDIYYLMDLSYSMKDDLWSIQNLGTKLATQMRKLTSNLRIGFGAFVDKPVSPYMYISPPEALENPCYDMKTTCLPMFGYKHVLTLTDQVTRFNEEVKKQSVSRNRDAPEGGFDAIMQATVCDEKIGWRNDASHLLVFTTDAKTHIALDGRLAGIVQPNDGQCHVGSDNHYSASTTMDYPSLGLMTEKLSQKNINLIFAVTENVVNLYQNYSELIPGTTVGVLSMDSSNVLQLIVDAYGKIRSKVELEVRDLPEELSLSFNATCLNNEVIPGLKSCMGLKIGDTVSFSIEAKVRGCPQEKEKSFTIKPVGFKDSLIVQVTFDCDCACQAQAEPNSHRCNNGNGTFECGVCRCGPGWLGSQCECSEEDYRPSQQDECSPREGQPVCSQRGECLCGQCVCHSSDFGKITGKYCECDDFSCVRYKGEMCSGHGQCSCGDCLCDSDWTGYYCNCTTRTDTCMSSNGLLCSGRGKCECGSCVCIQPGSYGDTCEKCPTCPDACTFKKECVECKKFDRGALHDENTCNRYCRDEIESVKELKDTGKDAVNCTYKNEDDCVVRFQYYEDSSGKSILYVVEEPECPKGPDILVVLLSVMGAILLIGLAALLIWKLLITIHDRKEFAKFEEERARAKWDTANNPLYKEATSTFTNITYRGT

[3] = system: chorioallantoic membrane vascularisation; assay: Chorioallantoic membrane (CAM) assay; assay type: in vivo, chicken embryo; conditions: applied on CAM day 6 p.f., incubated until day 11 p.f.
From the text: Local Application of AV-398 inhibits in vivo angiogenesis as evidenced by the chicken egg chorioallantoic membrane model. The chorioallantoic membrane (CAM) of the developing chicken embryo serves as an alternative to the traditional mammalian in vivo models, and further corroborates the findings in pigs described above and has clear relevance for the treatment e.g. dermatological indications linked to neoangiogenesis. AV-398 was applied over 5 days.
Eggs were opened on day 6 post fertilization (p.f.). Substances (200 μl respectively) were applied on the CAM on day 6 p.f. and incubated until day 11 p.f. As a vehicle control, 1% DMSO in PBS (phosphate-buffered saline solution pH 7.4) without AV-398 was used. Eggs were inspected daily by stereo-microscopy and pictures were taken (6× magnification).

CCOc1cc(C=C2S/C(=N/c3ccc(C(=O)O)cc3)N(C)C2=O)ccc1O (stereo in doubt) [AV-398, 4-({5-[(E)-1-(3-ethoxy-4-hydroxyphenyl)methylidene]-3-methyl-4-oxo-1,3-thiazolan-2-yliden}amino)benzoic acid]
bleeding surrounding the incision immediately after treatment (ocular angiogenesis): marked diffuse bleeding | neoangiogenesis on treated conjunctivae versus control-treated eyes (ocular angiogenesis; topical after incision): diminished neoangiogenesis | antiproliferative effect against endothelial cells [1]: strong antiproliferative effect | effects on cancer cell lines (cytotoxic activity) [2]: no meanigful effects | avβ3 binding affinity (αvβ3-receptor): 240 nM | vascularisation of chicken embryo CAM versus vehicle control [3]: markedly decreased vascularisation; also recorded: significant reduction of vascularisation
